Where two headings read alike, the source gives them in different places.
Legend:
BKB1 receptors = biological target: T1, BKB1 receptors (Homo sapiens, UniProt P46663); experiment: Calcium Mobilization Assay (FLIPR), IMR-90 cells, BKB1; assay type: cell-based; conditions: IL-1 induced IMR-90 cells, agonist desArg10-kallidin (DAKD)
T1 construct: Human (IMR-90) lung fibroblast cells expressing native BKB1 receptors; endogenous in cells; host or cells: IMR-90 human lung fibroblasts, treated with human IL-1 to up-regulate BKB1
T1 sequence (P46663 1-353): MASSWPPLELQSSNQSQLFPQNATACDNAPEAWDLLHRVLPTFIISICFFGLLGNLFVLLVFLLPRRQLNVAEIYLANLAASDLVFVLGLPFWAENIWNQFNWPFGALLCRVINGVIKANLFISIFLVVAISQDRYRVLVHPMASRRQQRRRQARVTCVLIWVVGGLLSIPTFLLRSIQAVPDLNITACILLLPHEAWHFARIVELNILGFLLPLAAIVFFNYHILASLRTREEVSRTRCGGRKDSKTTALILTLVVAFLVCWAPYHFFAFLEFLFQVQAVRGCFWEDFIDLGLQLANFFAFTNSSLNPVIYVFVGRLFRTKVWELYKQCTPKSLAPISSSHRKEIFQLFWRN
Description: Calcium Mobilization Assay (FLIPR)—Human (IMR-90) lung fibroblast cells expressing native BKB1 receptors were harvested by trypsinization and seeded into black wall/clear bottom 96-well plates (Costar 3904; Corning Life Sciences, Acton, Mass.) at approximately 13,000 cells/well. After 1 day incubation, cells were treated with human IL-1 (0.35 ng/ml) in 10% FBS/MEM for 2 h to up-regulate BKB1 receptors. Induced cells were loaded with fluorescent calcium indicator by incubation with 2.3 µM Fluo-4/acetoxymethyl ester (Invitrogen) at 37° C. for 1.5 h in the presence of an anion transport inhibitor (2.5 mM probenecid in 1% FBS/MEM). Extracellular dye was removed by washing with assay buffer (2.5 mM probenecid, 0.1% BSA in 20 mM HEPES/HBSS without bicarbonate or phenol red, pH 7.5) and cell plates were kept in the dark until used. Test compounds were assayed at eight concentrations in triplicate.

[1] = Pharmacokinetics after oral gavage; assay type: in vivo, rat; conditions: for AUC(0-inf): read-out: AUCINF_obs (converted); for half-life: read-out: T½
Description: In three of the rats tested in Example 56, indicated as R1, […], also the pharmacokinetic profile of compound 8 (R,R) was evaluated. The results are summarised in Tables III to IV and in FIGS. 1-4.
FIGS. 1 and 2 show the plasma concentrations, expressed in ng/ml, of compound 8 (R,R) over time after oral administration for each of the three subjects tested (FIG. 1) and as an average (FIG. 2).
In tables III and V, T1/2 means the half-time of the compound, Tmax means the time at which the concentration of the compound reaches the maximum level, Cmax means the maximal concentration, Tlast means the latest time-point at which the concentration of the compound can be measured, Clast means the concentration at the latest time-point at which the concentration of the compound can be measured, AUClast means the area under the curve at the latest time-point at which the concentration of the compound can be measured, AUCinf_obs means the area under the curve which is infinitely extrapolated and MRTlast means the mean residence time at the latest time-point at which the concentration of the compound can be measured.
In tables IV and VI, LLOQ means lower limit of quantification.

[2] = Sprague-Dawley (SD), rat, plasma, po, 10 mg/kg, oral administration, Average, read-out: plasma level
[3] = Sprague-Dawley (SD), rat, plasma, po, 10 mg/kg, oral administration, Rat2, read-out: plasma level
[4] = Sprague-Dawley (SD), rat, plasma, po, 10 mg/kg, oral administration, Rat3, read-out: plasma level
[5] = Sprague-Dawley, rat, plasma, po, 10 mg/kg, 10 mg/kg oral gavage, Average
[6] = Sprague-Dawley, rat, plasma, po, 10 mg/kg, 10 mg/kg oral gavage, Rat 1
[7] = Sprague-Dawley, rat, plasma, po, 10 mg/kg, 10 mg/kg oral gavage, Rat 2
[8] = Sprague-Dawley, rat, plasma, po, 10 mg/kg, 10 mg/kg oral gavage, Rat 3
[9] = Sprague-Dawley, rat, plasma, po, 10 mg/kg, oral administration, Average, read-out: plasma level
[10] = Sprague-Dawley, rat, plasma, po, 10 mg/kg, oral administration, Rat1, read-out: plasma level
[11] = Sprague-Dawley, rat, plasma, po, 10 mg/kg, oral administration, Rat2, read-out: plasma level
[12] = Sprague-Dawley, rat, plasma, po, 10 mg/kg, oral administration, Rat3, read-out: plasma level

IC50 (BKB1 receptors): 0.134 µM | Clast ([1]; 10 mg/kg oral gavage, Average): 1.1 ng/mL | Tlast ([1]; 10 mg/kg oral gavage, Average): 200.0 min | Tlast ([1]; 10 mg/kg oral gavage, Rat 1): 240 min | Tlast ([1]; 10 mg/kg oral gavage, Rat 2): 240 min | Tlast ([1]; 10 mg/kg oral gavage, Rat 3): 120 min | bioavailability ([1]; SD (Sprague-Dawley), rat, plasma, 10 mg/kg, oral vs intravenous exposure): 0.16% | Cmax ([1]; SD (Sprague-Dawley), rat, plasma, po, 10 mg/kg, oral administration): ~3 ng/mL | concentration at 15 min [1, 2]: 2.6 ng/mL | concentration at 15 min [1, 3]: 3 ng/mL | concentration at 15 min [1, 4]: 2.3 ng/mL | concentration at 30 min [1, 2]: 2 ng/mL | concentration at 30 min ([1]; Sprague-Dawley (SD), rat, plasma, po, 10 mg/kg, oral administration, Rat1, read-out: plasma level): 1.8 ng/mL | concentration at 30 min [1, 3]: 2.4 ng/mL | concentration at 30 min [1, 4]: 1.7 ng/mL | concentration at 240 min ([1]; Sprague-Dawley, rat, plasma, oral, 10 mg/kg, 10 mg/kg oral gavage, Rat 1, read-out: Clast): 1.1 ng/mL | concentration at 240 min ([1]; Sprague-Dawley, rat, plasma, oral, 10 mg/kg, 10 mg/kg oral gavage, Rat 2, read-out: Clast): 1.1 ng/mL | concentration at 120 min ([1]; Sprague-Dawley, rat, plasma, oral, 10 mg/kg, 10 mg/kg oral gavage, Rat 3, read-out: Clast): 1 ng/mL | AUC(0-t) [1, 5]: 5.63 ng·h/mL | Cmax [1, 5]: 3.4 ng/mL | MRT last [1, 5]: 1.41 h | Tmax [1, 5]: 0.138 h | AUC(0-inf) [1, 5]: 10.8 ng·h/mL | half-life [1, 5]: 3.37 h | AUC(0-t) [1, 6]: 5.67 ng·h/mL | Cmax [1, 6]: 4 ng/mL | MRT last [1, 6]: 1.69 h | Tmax [1, 6]: 0.0833 h | AUC(0-inf) [1, 6]: 14.4 ng·h/mL | half-life [1, 6]: 5.75 h | AUC(0-t) [1, 7]: 8.62 ng·h/mL | Cmax [1, 7]: 3 ng/mL | MRT last [1, 7]: 1.73 h | Tmax [1, 7]: 0.25 h | AUC(0-inf) [1, 7]: 13.7 ng·h/mL | half-life [1, 7]: 3.19 h | AUC(0-t) [1, 8]: 2.59 ng·h/mL | Cmax [1, 8]: 3.3 ng/mL | MRT last [1, 8]: 0.795 h | Tmax [1, 8]: 0.0833 h | AUC(0-inf) [1, 8]: 4.28 ng·h/mL | half-life [1, 8]: 1.17 h | concentration at 5 min [1, 9]: 3.1 ng/mL | concentration at 5 min [1, 10]: 4 ng/mL | concentration at 5 min [1, 11]: 2.2 ng/mL | concentration at 5 min [1, 12]: 3.3 ng/mL | concentration at 15 min [1, 10]: 2.7 ng/mL | concentration at 60 min [1, 9]: 1.4 ng/mL | concentration at 60 min [1, 10]: 1.3 ng/mL | concentration at 60 min [1, 11]: 2.1 ng/mL | concentration at 60 min [1, 12]: 0.8 ng/mL | concentration at 120 min ([1]; Sprague-Dawley, rat, plasma, po, 10 mg/kg, oral administration, 120 min, Average, read-out: plasma level): 1.7 ng/mL | concentration at 120 min ([1]; Sprague-Dawley, rat, plasma, po, 10 mg/kg, oral administration, 120 min, Rat1, read-out: plasma level): 1.3 ng/mL | concentration at 120 min ([1]; Sprague-Dawley, rat, plasma, po, 10 mg/kg, oral administration, 120 min, Rat2, read-out: plasma level): 2.8 ng/mL | concentration at 120 min ([1]; Sprague-Dawley, rat, plasma, po, 10 mg/kg, oral administration, 120 min, Rat3, read-out: plasma level): 1 ng/mL | concentration at 240 min ([1]; Sprague-Dawley, rat, plasma, po, 10 mg/kg, oral administration, 240 min, Average, read-out: plasma level): 1.1 ng/mL | concentration at 240 min ([1]; Sprague-Dawley, rat, plasma, po, 10 mg/kg, oral administration, 240 min, Rat1, read-out: plasma level): 1.1 ng/mL | concentration at 240 min ([1]; Sprague-Dawley, rat, plasma, po, 10 mg/kg, oral administration, 240 min, Rat2, read-out: plasma level): 1.1 ng/mL | absorption after oral administration ([1]; compared to the intravenous exposure): very poor absorption | plasma level ([1]; oral administration, 240 min, Rat3): <LLOQ | plasma level ([1]; oral administration, 480 min, Average): <LLOQ | plasma level ([1]; oral administration, 480 min, Rat1): <LLOQ | plasma level ([1]; oral administration, 480 min, Rat2): <LLOQ | plasma level ([1]; oral administration, 480 min, Rat3): <LLOQ
SMILES: COc1ccccc1CN(C(=O)CC(C)C)[C@@H](C(=O)NC[C@H]1CCCO1)c1ccc(C)cc1 [Compound 8 (R,R), 3-methyl-N-(2-methoxybenzyl)-N-{[(1R)-1-(4-methylphenyl)]-2-oxo-2-[(2R)-(tetrahydrofuran-2-ylmethyl)amino]ethyl}butanamide]

Source: US9409876B2, “Bradykinin receptor antagonists and pharmaceutical compositions containing them” (DOMPE' FARMACEUTICI S.P.A., priority 2013, dated 2016)
